13 molecules from ChEMBL document CHEMBL2016562, “Optimization of Pharmacokinetics through Manipulation of Physicochemical Properties in a Series of HCV Inhibitors” (ACS Med Chem Lett, 2011) can be followed below.

The nature of data set [1]: Mean residence time in Sprague-Dawley rat. It is filed as ADME, organism-based. The following applies: in vivo.
The next data set has as its system Hepatitis C virus. The data set can be described thus: Antiviral activity against HCV subtype 1b in replicon cells after 3 days by luciferase reporter gene assay. Format: functional, Hepacivirus hominis. The following applies: genotype 1b, 72 h. (A replicon is a self-replicating genome or part of one, used to study replication in cells.)
Data set [2] can be described thus: Half life in Sprague-Dawley rat liver microsomes. Format: ADME, Microsome.
Data set [3] in a line: Oral bioavailability in Sprague-Dawley rat after 30 mins. The following applies: in vivo. It is filed as ADME, organism-based.
Data set [4] is described as follows: Volume of distribution at steady state in Sprague-Dawley rat after 30 mins. It is filed as ADME, organism-based. The following applies: in vivo, read-out: Vdss.
A short description of data set [5]: Clearance in Sprague-Dawley rat after 30 mins. It is filed as ADME, organism-based. The following applies: in vivo.
A short description of data set [6]: Apparent permeability by PAMPA assay. Format: ADME. In general terms: The PAMPA barrier holds no transporters, so it reflects passive diffusion.

Structures are written as SMILES.

Broadly, the MRT is a mean duration of stay, worked out from the concentration-time curve. The term EC50 denotes the midpoint of the concentration-response curve. The low end stands for a more potent agent, the high end for a less potent agent. What is called half-life is how long it takes for the measured level to halve. Higher therefore signals slow decline. For orientation: bioavailability means dose-corrected exposure relative to a reference, in per cent. Low readings indicate little systemic uptake, high ones much systemic uptake. In data set [1], `COc1ccc(-c2ccc3nc(NCc4ccc(S(N)(=O)=O)cc4)nc(NC4(C#N)CC4)c3n2)cn1` gave an MRT of 0.4 h. A half-maximal effect in the data set on Hepatitis C virus (EC50) was put at 1 nM. Also, the half-life in data set [2] came to 1.62 h. The same molecule gave a bioavailability in data set [3] of 2%.

With `FC(F)(F)CNc1nc(NCc2ccc(-n3cncn3)cc2)nc2ccc(-c3ccc(OC4CC4)nc3)nc12`, the MRT in data set [1] stood at 5.3 h. This molecule showed an EC50 with Hepatitis C virus of 3 nM. For the same molecule, the half-life in data set [2] was greater than 6.58 h. In data set [3], the bioavailability stood at 59%.

Usually clearance stands for the volume of plasma or blood freed of the substance per unit of time. Read a low clearance as inefficient removal. In the case of `NS(=O)(=O)c1ccc(CNc2nc(NCC(F)(F)F)c3nc(-c4ccc(F)cc4)ccc3n2)cc1`, the Vd in data set [4] was found to be 2.3 L/kg. For the same molecule, the MRT in data set [1] turned out to be 6.9 h. Further, the EC50 with Hepatitis C virus turned out to be 16 nM. In addition, the half-life in data set [2] is greater than 6.58 h. In data set [5], this molecule showed a clearance of 5 mL/min/kg. The molecule further came in with a bioavailability in data set [3] of 100%.

Molecule `NS(=O)(=O)c1ccc(CNc2nc(NCC(F)(F)F)c3nc(-c4ccc(-n5cncn5)cc4)ccc3n2)cc1` had an EC50 with Hepatitis C virus of 2 nM. In data set [2], this molecule displayed a half-life greater than 6.58 h. This molecule had a bioavailability in data set [3] of 4%.

Regarding `N#CC1(Nc2nc(NCc3ccc(S(N)(=O)=O)cc3)nc3ccc(-c4ccc(F)nc4)nc23)CC1`, in data set [4], the Vd was found to be 0.9 L/kg. For the same molecule, the MRT in data set [1] turned out to be 0.9 h. In the data set on Hepatitis C virus, the EC50 worked out at 5 nM. The same molecule yielded a half-life in data set [2] greater than 6.58 h. This molecule showed a clearance in data set [5] of 15 mL/min/kg.

For `NS(=O)(=O)c1ccc(CNc2nc(NCC(F)(F)F)c3nc(-c4ccc(F)nc4)ccc3n2)cc1`, in data set [4], the Vd amounted to 1 L/kg. In addition, in data set [1], the MRT was determined as 4.9 h. Further, the EC50 in the data set with Hepatitis C virus was 10 nM. Also, the half-life in data set [2] turned out to be 4.63 h. In data set [5], the clearance was 3.33 mL/min/kg.

On to `NS(=O)(=O)c1cc(Cl)cc(CNc2nc(NC3(C(F)(F)F)CC3)c3nc(-c4ccc(F)cc4)ccc3n2)c1`, for which the Vd in data set [4] is 4.3 L/kg. In data set [1], the MRT turned out to be 11 h. In the data set on Hepatitis C virus, this molecule yielded an EC50 of 28 nM. Besides, in data set [2], the half-life was greater than 6.58 h. This molecule also gave a clearance in data set [5] of 6.67 mL/min/kg.

On to `COc1ccc(-c2ccc3nc(NCc4ccc(S(N)(=O)=O)cc4)nc(NCC(F)(F)F)c3n2)cc1S(C)(=O)=O`, for which the MRT in data set [1] was 0.8 h. The EC50 in the data set with Hepatitis C virus stood at 1 nM. The molecule further registered a half-life in data set [2] greater than 6.58 h. In data set [3], the bioavailability turned out to be 1%.

Molecule `COc1ccc(-c2ccc3nc(N[C@H](C)c4ccc(-n5cncn5)cc4)nc(NCC(F)(F)F)c3n2)cc1S(C)(=O)=O` showed an MRT in data set [1] of 2.6 h. For the same molecule, it took 2 nM to reach a half-maximal effect in the data set on Hepatitis C virus (EC50). The same molecule displayed a half-life in data set [2] of 5.85 h. The bioavailability in data set [3] is 47%.

Molecule `C[C@@H](Nc1nc(NC2(C(F)(F)F)CC2)c2nc(-c3cccc(S(C)(=O)=O)c3)ccc2n1)c1ccc(-n2cncn2)cc1` showed an MRT in data set [1] of 3.5 h. The molecule further came in with an EC50 in the data set with Hepatitis C virus of 4 nM. The half-life in data set [2] came out at 3.92 h. In data set [3], this molecule registered a bioavailability of 88%.

`CC1(Oc2nc(NCc3ccc(-n4cncn4)cc3)nc3ccc(-c4ccc(OC5CC5)nc4)nc23)CC1` gave an MRT in data set [1] of 1.9 h. The same molecule yielded an EC50 with Hepatitis C virus of 2 nM. In data set [2], this molecule yielded a half-life greater than 6.58 h. The molecule also showed a bioavailability in data set [3] of 100%.

As usually defined, the Papp is a coefficient for how fast a substance crosses the barrier. For the molecule `NS(=O)(=O)c1ccc(CNc2nc(NCC(F)(F)F)c3nc(-c4ccc(NC(=O)C5CC5)cc4)ccc3n2)cc1`, the EC50 with Hepatitis C virus came to 3 nM. Moreover, the half-life in data set [2] amounted to 1.17 h. Besides, in data set [6], the apparent permeability (Papp) stood at 0.004 ×10⁻⁶ cm/s. In data set [3], this molecule displayed a bioavailability of 1%.

Molecule `NS(=O)(=O)c1cc(CNc2nc(NCC(F)(F)F)c3nc(-c4ccc(NC(=O)C5(C(F)(F)F)CC5)cc4)ccc3n2)cc(C(F)(F)F)c1` came in with an EC50 with Hepatitis C virus of 6 nM. For the same molecule, the half-life in data set [2] is greater than 6.58 h. Moreover, the Papp in data set [6] is 0.09 ×10⁻⁶ cm/s. Besides, the bioavailability in data set [3] was found to be 39%.
